Reference: patent US20220354835A1, “COMPOUNDS FOR DEGRADING TAU PROTEIN AGGREGATES AND USES THEREOF” (Aprinoia Therapeutics Limited, priority 2019, published 2022)

target: T1, heparin-induced aggregated tau (aTau), full-length 2N4R human Tau (Homo sapiens, UniProt P10636); assay: In vitro fluorometric aTau binding assay; settings: 0.04 μM aTau, serially diluted compound 10 to 0.00017 μM, 37° C. 1 hour, fluorescence
T1 construct: transformed with a full-length 2N4R tau expression plasmid; made in house; host or cells: E. coli BL21
Experimental: (§1) (A) Expression and purification of human Tau: 1 mM IPTG (Sangon Biotech, Cat. No A100487) was used to induce production of tau by bacteria (BL21, Invitrogen, Cat. No C600003) transformed with a full-length 2N4R tau expression plasmid. After 3 hours, cell pellet was resuspended in lysis buffer (100 mM PIPES, 1 mM EGTA, 1 mM MgSO4, pH 6.8) and lysed by sonication followed by centrifugation (15,000 rpm, 15 min, 4° C.). The supernatant was then placed in a boiling water bath for 20 min, followed by centrifugation (15,000 rpm, 15 min, 4° C.). Supernatant was loaded onto a Q-Sepharose® Fast Flow column (GE healthcare, Cat. No 17-0510-01), the flow-through fraction was loaded onto an SP-Sepharose® Fast Flow column (GE healthcare, Cat. No 17-0729-01), and tau protein was eluted with elution buffer (100 mM PIPES, 1 M NaCl, 1 mM EGTA, 1 mM MgSO4, 0.2 M NaCl, pH 6.8). Collected fractions of tau-containing eluates were pooled, concentrated and dialyzed against HEPES buffer (25 mM HEPES, 0.1 mM EDTA, 0.5 mM DTT, 100 mM NaCl, pH 7.2) and stored at −80° C. in small aliquots until use. Protein concentration was determined by UV absorption.
(§2) (B) Preparation of heparin-induced aggregated tau (aTau): 2 μM of tau prepared in 30 mM Tris-HCl, pH 7.5 buffer was incubated in tube with 15 μM heparin (Sigma, Cat. No H3149) at 37° C. for 24 hours.
(D) In vitro fluorometric aTau binding assays: 2 μM aTau was diluted to 0.04 μM with 30 mM Tris-HCl (pH 6.8), and then incubated with serially diluted compound (three-fold serial dilutions, from 10 to 0.00017 μM) in a 96-well plate (Corning, Cat. No 3573) at 37° C. for 1 hour. Fluorescence intensity (excitation/emission=370/500 nm) of APN-0729 was read by microplate spectrometer (EnSpire 2300, PerkinElmer). Compound Kd values were calculated using the following equation: Y=Bmax* X (Kd+X), where X is the concentration of compound; Y is the fluorescence signal of (compound+aTau)−(compound+DMSO); and Bmax is the maximum signal.

T1 sequence (P10636 1-441 isoform P10636-8): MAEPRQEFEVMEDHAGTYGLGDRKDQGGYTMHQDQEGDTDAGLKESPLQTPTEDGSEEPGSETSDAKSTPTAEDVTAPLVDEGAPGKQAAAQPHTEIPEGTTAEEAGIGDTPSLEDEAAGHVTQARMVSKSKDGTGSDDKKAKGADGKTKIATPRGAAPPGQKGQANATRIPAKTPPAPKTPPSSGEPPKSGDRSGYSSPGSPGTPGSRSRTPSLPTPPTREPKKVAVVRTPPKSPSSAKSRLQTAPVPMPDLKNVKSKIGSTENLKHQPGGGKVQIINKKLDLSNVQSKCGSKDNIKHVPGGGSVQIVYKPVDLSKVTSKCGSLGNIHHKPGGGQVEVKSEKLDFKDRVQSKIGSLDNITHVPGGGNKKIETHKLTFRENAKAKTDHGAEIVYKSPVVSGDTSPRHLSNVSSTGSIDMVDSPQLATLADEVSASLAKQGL

Compound | Kd [nM]
CN(C)c1ccc2nc(-c3ccc(-c4ccc(NCCOCCOCCOCCOCCOCCOc5ccc6c(c5)C(=O)N(C5CCC(=O)NC5=O)C6=O)nc4)cc3)sc2c1 (stereo not drawn) [Compound 160275, 2-[2,6-bis(oxo)piperidin-3-yl]-5-[2-[2-[2-[2-[2-[2-[[5-[4-[6-(dimethylamino)-1,3-benzothiazol-2-yl]phenyl]pyridin-2-yl]amino]ethoxy]ethoxy]ethoxy]ethoxy]ethoxy]ethoxy]isoindole-1,3-dione] | 230

target: T1, heparin-induced aggregated tau (aTau), full-length 2N4R human Tau; assay: PBB5 competition assay; type: binding; settings: 0.12 μM aTau, 0.1 μM PBB5, 37° C. 1 hour, PBB5 fluorescence 530/690 nm
Experimental: as §1, §2
(E) PBBS competition assay: 2 μM of aTau was diluted to 0.12 μM by […] (pH 6.8) and then incubated with 0.1 μM 2-(4-(2-(methylamino)pyridine-5-yl)-1,3-butadiene-1-yl)benzothiazole-6-ol (PBB5) and serially diluted compound (three-fold serial dilution, from 10 to 0.00017 μM) in a 96-well plate (Corning, Cat. No 3573) at 37° C. for 1 hour. Fluorescence intensity (excitation/emission=530/690 nm) of PBB5 was read by microplate spectrometer (EnSpire 2300, PerkinElmer). Percentage of competition was calculated using the following equation: (Max−well of compound alone)/(Max−Min)*100%, where Max=(Tau+PBB5) signals−(buffer+PBB5) signals; and Min=(buffer+PBB5) signals−(buffer+PBB5) signals.
The IC50 value of each compound was calculated with GraphPad Prism software using the “4 Parameter Logistic Model or Sigmoidal Dose-Response Model”:
Y=Bottom+(Top−Bottom)/(1+(IC50/×)^HillSlope)

Compound | IC50 [nM]
CN(C)c1ccc2nc(-c3ccc(-c4ccc(NCCOCCOCCOCCOCCOCCOc5ccc6c(c5)C(=O)N(C5CCC(=O)NC5=O)C6=O)nc4)cc3)sc2c1 (stereo not drawn) [Compound 160275, 2-[2,6-bis(oxo)piperidin-3-yl]-5-[2-[2-[2-[2-[2-[2-[[5-[4-[6-(dimethylamino)-1,3-benzothiazol-2-yl]phenyl]pyridin-2-yl]amino]ethoxy]ethoxy]ethoxy]ethoxy]ethoxy]ethoxy]isoindole-1,3-dione] | 1290

same assay, conditions: 0.12 μM aTau, 0.1 μM PBB5, compound up to 10 μM; read-out: Competition Assay with PBB5: Bmax (%)

Compound | Emax [%]
CN(C)c1ccc2nc(-c3ccc(-c4ccc(NCCOCCOCCOCCOCCOCCOc5ccc6c(c5)C(=O)N(C5CCC(=O)NC5=O)C6=O)nc4)cc3)sc2c1 (stereo not drawn) [Compound 160275, 2-[2,6-bis(oxo)piperidin-3-yl]-5-[2-[2-[2-[2-[2-[2-[[5-[4-[6-(dimethylamino)-1,3-benzothiazol-2-yl]phenyl]pyridin-2-yl]amino]ethoxy]ethoxy]ethoxy]ethoxy]ethoxy]ethoxy]isoindole-1,3-dione] | 96
CN(C)c1ccc(-c2ccc(-c3cn4cc(OCCOCCN5C(=O)CCC(N6C(=O)c7ccc(O)cc7C6=O)C5=O)ccc4n3)cc2)c(F)n1 (stereo not drawn) [Compound 160570, 2-[1-[2-[2-[2-[4-[6-(dimethylamino)-2-fluoranyl-pyridin-3-yl]phenyl]imidazo[1,2-a]pyridin-6-yl]oxyethoxy]ethyl]-2,6-bis(oxidanylidene)piperidin-3-yl]-5-oxidanyl-isoindole-1,3-dione] | 100
CN(C)c1ccc2nc(-c3ccc(-c4ccc(NCCOCCN5C(=O)CCC(N6C(=O)c7ccc(O)cc7C6=O)C5=O)nc4)cc3)sc2c1 (stereo not drawn) [Compound 160703, 2-[1-[2-[2-[[5-[4-[6-(dimethylamino)-1,3-benzothiazol-2-yl]phenyl]pyridin-2-yl]amino]ethoxy]ethyl]-2,6-bis(oxidanylidene)piperidin-3-yl]-5-oxidanyl-isoindole-1,3-dione] | 100

target: T2, Tau aggregates in P301L-Tau-FL-GFP HEK293 cells (Homo sapiens, UniProt P10636, P618L); assay: Tau degradation assay (APNmAb005 ELISA-based Tau aggregation assay); type: cell-based; settings: 1 μM compound, APNmAb005 ELISA
T2 construct: express full-length human tau T40 (2N4R) carrying the P301L mutation with a GFP tag; expressed in transfected cells
Experimental: (A). Cell-based model of Tau inclusion formation: Six month old rTg4510 mouse brain lysates were used as the source of tau seeds, prepared as described in Example 26 above. P301L-Tau-FL-GFP HEK293 cells represent HEK293 cells express full-length human tau T40 (2N4R) carrying the P301L mutation with a GFP tag (P301L-Tau-FL-GFP). 1×10^6 of P301L-Tau-FL-GFP HEK293 cells were cultured on a 6-well plate in culture medium containing DMEM/F-12 (Gibco) supplemented with 10% fetal bovine serum (FBS) (Gibco), 1% Penicillin-Streptomycin (Gibco) and 0.5 mg/ml geneticin (Thermo Fisher Scientific) for 24 hours to reach 70-90% confluency, indicating the cells were ready for transfection. 50 μg of 6-month-old rTg4510 mouse brain lysate was diluted in 400 μL of serum free medium and mixed with 16 μL of lipofectamine 3000 reagent (Thermo Fisher Scientific) diluted in 400 μl of serum free medium. A solution mixture of rTg4510 brain lysate and lipofectamine 3000 was incubated at room temperature for 25 min. The culture media were removed, and then a solution mixture of rTg4510 lysate and lipofectamine 3000 was added to the cells for transfection. The solution mixture was incubated at room temperature for five hours, followed by medium change to 10% fetal bovine serum (FBS). After two-day incubation, Tau aggregates (Tau spots) were induced and images were acquired by ImageXpress Micro Confocal high-content imaging system (Molecular Devices) as described in Example 52 above. Analysis was performed by two customized modules in MetaXpress software (Molecular Devices) for aggregated tau analysis. Output included cell numbers, numbers of tau spots, average intensity of tau spots, and average size of tau spots.
(B). Compound treatment: 100 μL of 3×10^4 cells comprising Tau aggregates, prepared as described above in step (A), were plated on a 96-well plate coated with poly-D-lysine (BD Biosciences) and cultured for 24 hours. Compounds to be tested were dissolved in culture medium containing 0.1% DMSO. Each of test compounds in the concentration of 1, 0.2 and 0.04 μM was added to the cells comprising Tau aggregates and incubated at 37° C. for 24 hours. After that, culture medium was removed, cells were washed with PBS solution and then lysed using 30 μL of lysis buffer (PBS containing 0.3% Triton X-100 and 400 mM NaCl) for one hour at 4° C., and then cell lysate was diluted by 170 μl of PBS containing 400 mM NaCl. Cell lysate was filtrated by a […] filtration plate (Pall) and applied for Tau aggregation assay.
(C). Control cell lysate: control cell lysate was collected from non-seeded cells.
(D). ELISA-based Tau aggregation assay: APNmAb005 ELISA kit for Tau aggregation assay was designed and developed to detect abnormal tau aggregates in buffered solution or cell lysate by using anti-Tau APNmab005 as capture and detection antibody. This antibody is a highly specific antibody bound to human tau aggregates accumulated in mammalian cells. APNmAb005 is recited in PCT Patent Application No. PCT/M2020/057415, filed Aug. 5, 2020, which is incorporated herein by reference.
0.15 μg of APNmAb005 in 100 mM sodium carbonate buffer (pH 9.6) was coated on a high-binding polystyrene 96-well microplate (Greiner Bio-One) at 4° C. overnight. The microplate was washed with PBS followed by treatment with Intercept (PBS) blocking buffer (LI-COR) at room temperature for 2 hours. After that, the microplate was washed with PBS, and then the cell lysate with compound treatment, prepared as described above in step (C), was added into each well of the microplate and incubated at room temperature for 2 hours. The microplate was washed with PBS and then incubated with HRP-conjugated secondary antibody APNmAb005 at room temperature for 3 hours. HRP-conjugated secondary antibody APNmAb005 was prepared using HRP conjugation kit (Abcam,ab102890). The microplate was then washed with PBS and incubated with 100 μL of horseradish peroxidase (HRP) substrate at room temperature. […]

T2 sequence (P10636 1-441 isoform P10636-8 P301L): as the sequence (P10636 1-441 isoform P10636-8) above, with P301L counted along it

Compound | Optical Density (O.D.) 450 value decrease compared to vehicle (reduction of Tau aggregates) [%]
CN(C)c1ccc(-c2ccc(-c3cn4cccc(OCCOCCOc5ccc6c(c5)CN(C5CCC(=O)NC5=O)C6=O)c4n3)cc2)cn1 (stereo not drawn) [Compound 162842] | 20

same assay, conditions: 1 μM of compound, 24 hours, P301L-Tau-FL-GFP HEK293 cells seeded with rTg4510 brain lysate; read-out: Activity (reduction of tau aggregates)

Compound | inhibition at 1 µM [%]
CN(C)c1ccc(-c2ccc(-c3nc4ccc(NCCOCCOCCOCCOc5ccc6c(c5)C(=O)N(C5CCC(=O)NC5=O)C6=O)cc4s3)cc2)cn1 (stereo not drawn) [Compound 160939, 2-[2,6-bis(oxo)piperidin-3-yl]-5-[2-[2-[2-[2-[[2-[4-[6-(dimethylamino)pyridin-3-yl]-phenyl]-1,3-benzothiazol-6-yl]amino]ethoxy]ethoxy]ethoxy]ethoxy]isoindole-1,3-dione] | < 10
COc1ccc2nc(-c3ccc(-c4ccc(NCCOCCOc5ccc6c(c5)C(=O)N(C5CCC(=O)NC5=O)C6=O)nc4F)cc3)cn2c1 (stereo not drawn) [Compound 161215, 2-[2,6-bis(oxo)piperidin-3-yl]-5-[2-[2-[[6-fluoro-5-[4-(6-methoxyimidazo[1,2-a]pyridin-2-yl)phenyl]pyridin-2-yl]amino]ethoxy]ethoxy]isoindole-1,3-dione] | 10 to 20
COc1ccc2nc(-c3ccc(-c4ccc(NCCOCCOCCOCCOCCOCCOc5ccc6c(c5)C(=O)N(C5CCC(=O)NC5=O)C6=O)nc4F)cc3)cn2c1 (stereo not drawn) [Compound 161409] | 10 to 20
COc1ccc2nc(-c3ccc(-c4ccnc(NCCOCCOc5ccc6c(c5)CN(C5CCC(=O)NC5=O)C6=O)c4)cc3)cn2c1 (stereo not drawn) [Compound 162640, 3-[6-[2-[2-[[4-[4-(6-methoxyimidazo[1,2-a]pyridin-2-yl)phenyl]pyridin-2-yl]amino]ethoxy]ethoxy]-3-oxidanylidene-1H-isoindol-2-yl]piperidine-2,6-dione] | 10 to 20
CN(C)c1ccc(-c2ccc(-c3cn4cccc(OCCOCCOc5ccc6c(c5)CN(C5CCC(=O)NC5=O)C6=O)c4n3)cc2)cn1 (stereo not drawn) [Compound 162842] | > 20
CN(C)c1ccc(-c2ccc(-c3nc4ccc(OCCOCCOc5ccc6c(c5)CN(C5CCC(=O)NC5=O)C6=O)cc4s3)c(C(F)(F)F)c2)cn1 (stereo not drawn) [Compound 162903] | 10 to 20
CN(C)c1ccc(-c2ccc(-c3nc4ccc(OCCOCCOc5ccc6c(c5)CN(C5CCC(=O)NC5=O)C6=O)cc4s3)cc2)cn1 (stereo not drawn) [Compound 163123] | 10 to 20
CN(C)c1ccc(-c2ccc(-c3nc4ccc(OCCOCCOc5ccc6c(c5)CN(C5CCC(=O)NC5=O)C6=O)cc4o3)cc2)cn1 (stereo not drawn) [Compound 163365] | 10 to 20
CN(C)c1ccc(-c2ccc(-c3cn4cc(OCCOCCN5C(=O)CCC(N6C(=O)c7ccc(O)cc7C6=O)C5=O)ccc4n3)cc2)c(F)n1 (stereo not drawn) [Compound 170350] | 10 to 20
CN(C)c1ccc(-c2ccc(-c3nc4ccc(OCCOCCOCCOc5ccc6c(c5)CN(C5CCC(=O)NC5=O)C6=O)cc4s3)c(C(F)(F)F)c2)cn1 (stereo not drawn) [Compound 174251] | < 10
CN(C)c1ccc2nc(-c3ccc(-c4ccc(NCCOCCOc5ccc6c(c5)CN(C5CCC(=O)NC5=O)C6=O)nc4)cc3C(F)(F)F)sc2c1 (stereo not drawn) [Compound 177031] | < 10
COc1ccc2nc(-c3ccc(-c4ccc(NCCOCCOc5cccc6c5C(=O)N(C5CCC(=O)NC5=O)C6=O)nc4)cc3)sc2c1 (stereo not drawn) [Compound 177038] | < 10
